Reference: US20230278972A1, “SUBSTITUTED HALOALKYL SULFONANILIDE HERBICIDES” (FMC Corporation, priority 2020, published 2023)

Experiments:
Type in all cases: in vivo
corn (Zea mays) = assay: Test A1 preemergence, corn
Summary of the method: (§1)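 Seeds were first planted into a blend of loam soil and sand and given a preemergence directed soil spray. In parallel, pots of the same soil were sown for postemergence application once plants reached 2 to 10 cm and the one- to two-leaf stage. Both used surfactant-containing non-phytotoxic solvent formulations.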

[1] = system: goosegrass (Eleusine indica); assay: Test A1 preemergence, goosegrass
Summary of the method: as §1

[2] = system: Oat, Wild (wild oat, Avena fatua); assay: Test A1 preemergence, Oat, Wild
Summary of the method: as §1

[3] = system: ragweed (common ragweed, Ambrosia artemisiifolia); assay: Test A1 preemergence, ragweed
Summary of the method: as §1

soybean (Glycine max) = assay: Test A1 postemergence, soybean; conditions: for Soybean plant response rating: 31 g ai/ha, postemergence; for Plant response rating, Soybean: Postemergence
Summary of the method: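 Both timings started from seed in a loam-sand blend. Preemergence pots got a directed soil application immediately; postemergence pots were sprayed when seedlings had one or two leaves and stood 2–10 cm. Each compound was prepared in a non-phytotoxic solvent plus surfactant.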

[4] = 31 g ai/ha, 0 to 100 scale (0 no effect, 100 complete control)
[5] = 125 g ai/ha, 0 to 100 scale, 0 no effect, 100 complete control
[6] = 0 to 100 scale (0 no effect, 100 complete control)
[7] = 125 g ai/ha, 0 to 100 scale (0 no effect, 100 complete control), 10 days
[8] = 500 g ai/ha, 0 to 100 scale (0 no effect, 100 complete control)
[9] = 125 g ai/ha, 0 to 100 scale (0 no effect, 100 complete control)

Row | Structure (SMILES) | Plant response rating, Corn (corn (Zea mays); [4]) | Plant response rating, Corn (corn (Zea mays); [5]) | Plant response rating, Goosegrass [1, 4] | Plant response rating, Goosegrass [1, 5] | Plant response rating, Oat, Wild [2, 4] | Plant response rating, Oat, Wild [2, 5] | Plant response rating, Ragweed [3, 4] | Plant response rating, Ragweed [3, 5] | Soybean plant response rating (soybean (Glycine max); [6]) | Plant response rating, Soybean (soybean (Glycine max); 125 g ai/ha, 0 to 100 scale) | Plant response rating, Soybean (soybean (Glycine max); [7]) | Plant response rating, Corn (corn (Zea mays); [8]) | Plant response rating, Goosegrass [1, 8] | Plant response rating, Oat, Wild [2, 8] | Plant response rating, Ragweed [3, 8] | Plant response rating, Soybean (soybean (Glycine max); 500 g ai/ha, 0 to 100 scale) | Plant response rating, Goosegrass [1, 9] | Plant response rating, Oat, Wild [2, 9] | Plant response rating, Ragweed [3, 9]
1 | CCOC(=O)N(c1cc(C(=O)N2C[C@@H](C)O[C@H](C)C2)c(C)c(C)c1C)S(=O)(=O)C(F)(F)F (relative stereo) [Compound 374] | 20 | 40 | 60 | 100 | 0 | 30 | 0 | 70 | 50 | 90 |  |  |  |  |  |  |  |  | 
2 | Cc1ccc(C2=NOC3CCCC23)cc1NS(=O)(=O)C(F)(F)F (stereo not shown) [Compound 377] | 0 | 0 | 0 | 20 | 0 | 0 | 0 | 0 | 0 | 30 |  |  |  |  |  |  |  |  | 
3 | CCc1cc(C)c(N(COC(=O)C(C)(C)C)S(=O)(=O)C(F)(F)F)cc1C1=NOC2CCCC12 (stereo not shown) [Compound 378] | 0 | 0 | 20 | 50 | 10 | 40 | 0 | 0 | 0 | 20 |  |  |  |  |  |  |  |  | 
4 | Cc1c(NS(=O)(=O)C(F)(F)F)cc(C2=NOC3(CCCC3)C2)c(C)c1C [Compound 380] | 0 | 30 | 50 | 100 | 20 | 90 | 0 | 40 | 50 |  | 60 |  |  |  |  |  |  |  | 
5 | Cc1cc(C)c(C2=NOC(C(C)C)C2)cc1NS(=O)(=O)C(F)(F)F (stereo not shown) [Compound 381] | 0 | 70 | 30 | 100 | 50 | 80 | 0 | 0 | 50 |  | 60 |  |  |  |  |  |  |  | 
6 | Cc1c(C2=NOC3(CCCC3)C2)cc(N(COC(=O)C(C)(C)C)S(=O)(=O)C(F)(F)F)c(C)c1C [Compound 382] | 0 | 0 | 0 | 30 | 20 | 40 | 0 | 0 | 40 |  | 50 |  |  |  |  |  |  |  | 
7 | Cc1cc(Cl)c(NS(=O)(=O)C(F)(F)F)cc1N1CCC2(CCCCC2)C1=O [Compound 393] | 0 | 80 | 100 | 100 | 10 | 70 | 40 | 90 | 50 |  | 60 |  |  |  |  |  |  |  | 
8 | Cc1cc(C)c(N(COC(=O)C(C)(C)C)S(=O)(=O)C(F)(F)F)cc1N1CCC2(CCC(F)(F)CC2)C1=O [Compound 397] |  | 10 |  | 100 |  | 20 |  | 90 |  |  | 50 | 60 | 100 | 90 | 90 | 60 |  |  | 
9 | COC1CCC2(CC1)CCN(c1cc(NS(=O)(=O)C(F)(F)F)c(C)cc1C)C2=O (stereo not shown) [Compound 398] | 0 | 60 | 100 | 100 | 20 | 70 | 20 | 80 | 30 |  | 60 |  |  |  |  |  |  |  | 
10 | Cc1cc(C)c(N(S(=O)(=O)C(F)(F)F)S(=O)(=O)C(F)(F)F)cc1N1CCC2(CCC(C(F)(F)F)CC2)C1=O (stereo not shown) [Compound 399] | 0 | 0 | 90 | 90 | 20 | 40 | 0 | 60 | 60 |  | 100 |  |  |  |  |  |  |  | 
11 | Cc1cc(C)c(N2CCC3(CCC(C(F)(F)F)CC3)C2=O)cc1NS(=O)(=O)C(F)(F)F (stereo not shown) [Compound 400] | 0 | 20 | 90 | 100 | 50 | 90 | 70 | 90 | 50 |  | 60 |  |  |  |  |  |  |  | 
12 | Cc1cc(C)c(N(COC(=O)C(C)(C)C)S(=O)(=O)C(F)(F)F)cc1N1CCC2(CCC(C)CC2)C1=O (stereo not shown) [Compound 401] | 0 | 20 | 0 | 30 | 0 | 0 | 0 | 10 | 60 |  | 70 |  |  |  |  |  |  |  | 
13 | Cc1cc(C)c(N2CCC3(CCC(C)CC3)C2=O)cc1NS(=O)(=O)C(F)(F)F (stereo not shown) [Compound 402] | 0 | 80 | 90 | 100 | 50 | 70 | 20 | 50 | 60 |  | 80 |  |  |  |  |  |  |  | 
14 | Cc1cc(C)c(N(COC(=O)C(C)(C)C)S(=O)(=O)C(F)(F)F)cc1N1CCC2(CCC(C(F)(F)F)CC2)C1=O (stereo not shown) [Compound 403] | 0 | 10 | 0 | 0 | 0 | 10 | 0 | 20 | 50 |  | 60 |  |  |  |  |  |  |  | 
15 | CCOc1cccc2c1C(=O)N(c1cc(N(COC(=O)C(C)(C)C)S(=O)(=O)Cl)c(C)cc1C)C2 [Compound 414] | 0 | 10 | 0 |  |  |  |  |  | 20 |  | 30 |  |  |  |  |  | 0 | 30 | 20
